Seven molecules from patent publication US20230024096A1, “BIFUNCTIONAL COMPOUNDS FOR THE TREATMENT OF CANCER” (Hoffmann-La Roche Inc., priority 2019, published 2023) can be followed below.

SMILES strings stand for the structures.

In the test the target is T1, SMARCA2 (Homo sapiens, UniProt P51531).
T1 construct: endogenous in cells; host or cells: HT1080 (CRISPR HiBiT knock-in clone, generated in house)
The test is described as follows: SMARCA2 HiBiT degradation assay (cellular). The format is cell-based. As to conditions: table head names A549; for DC50: 6 h incubation, HiBiT-tagged SMARCA2, luminescence read-out, read-out: HiBit A549 SMARCA2 IP (nM) 6 h; for Emax: A549, 6 h incubation, Emax = amount of residual protein remaining in the cell following compound treatment.

T1 sequence (P51531 whole entry): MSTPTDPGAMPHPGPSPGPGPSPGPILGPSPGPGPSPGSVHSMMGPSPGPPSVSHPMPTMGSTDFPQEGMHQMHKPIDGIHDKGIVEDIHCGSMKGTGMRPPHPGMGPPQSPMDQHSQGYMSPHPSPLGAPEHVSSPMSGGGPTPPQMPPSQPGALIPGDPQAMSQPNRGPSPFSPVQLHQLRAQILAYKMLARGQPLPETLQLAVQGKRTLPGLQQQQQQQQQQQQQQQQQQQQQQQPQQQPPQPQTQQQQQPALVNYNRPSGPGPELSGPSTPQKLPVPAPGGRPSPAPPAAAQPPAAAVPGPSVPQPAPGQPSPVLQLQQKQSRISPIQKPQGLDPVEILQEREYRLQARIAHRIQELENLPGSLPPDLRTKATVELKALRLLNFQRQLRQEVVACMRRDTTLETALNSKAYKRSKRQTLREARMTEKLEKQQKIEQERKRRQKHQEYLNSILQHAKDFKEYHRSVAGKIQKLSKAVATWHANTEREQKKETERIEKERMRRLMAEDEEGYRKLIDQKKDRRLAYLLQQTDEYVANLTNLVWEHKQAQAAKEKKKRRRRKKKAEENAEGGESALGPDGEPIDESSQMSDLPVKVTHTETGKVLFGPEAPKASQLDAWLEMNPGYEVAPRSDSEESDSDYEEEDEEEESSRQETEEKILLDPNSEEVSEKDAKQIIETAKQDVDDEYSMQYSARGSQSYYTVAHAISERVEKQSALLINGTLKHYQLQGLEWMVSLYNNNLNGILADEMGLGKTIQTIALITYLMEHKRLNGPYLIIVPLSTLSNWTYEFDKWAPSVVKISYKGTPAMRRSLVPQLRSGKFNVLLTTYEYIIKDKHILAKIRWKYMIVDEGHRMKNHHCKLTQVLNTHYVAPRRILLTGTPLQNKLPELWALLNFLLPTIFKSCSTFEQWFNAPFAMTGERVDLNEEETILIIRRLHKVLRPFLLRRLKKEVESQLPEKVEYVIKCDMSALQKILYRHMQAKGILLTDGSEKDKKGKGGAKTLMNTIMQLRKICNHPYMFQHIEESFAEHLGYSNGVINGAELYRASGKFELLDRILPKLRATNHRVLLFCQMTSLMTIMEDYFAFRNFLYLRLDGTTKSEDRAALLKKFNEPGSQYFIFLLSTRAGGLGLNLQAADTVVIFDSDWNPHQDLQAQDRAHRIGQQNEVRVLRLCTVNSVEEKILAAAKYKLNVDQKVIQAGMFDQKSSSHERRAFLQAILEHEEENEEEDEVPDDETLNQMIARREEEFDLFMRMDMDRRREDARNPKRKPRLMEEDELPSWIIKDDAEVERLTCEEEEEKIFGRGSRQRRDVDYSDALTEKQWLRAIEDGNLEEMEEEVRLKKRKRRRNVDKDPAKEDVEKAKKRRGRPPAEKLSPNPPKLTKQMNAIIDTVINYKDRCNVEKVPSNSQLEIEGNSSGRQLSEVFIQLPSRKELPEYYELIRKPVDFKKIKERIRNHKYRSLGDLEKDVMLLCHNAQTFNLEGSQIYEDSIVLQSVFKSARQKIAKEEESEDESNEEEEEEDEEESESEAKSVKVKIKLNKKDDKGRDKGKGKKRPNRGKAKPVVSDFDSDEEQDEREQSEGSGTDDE

With `Nc1nnc(-c2ccccc2O)cc1N1CCC(C(=O)NCC2CCN(C(=O)CCCN3CCC(c4ccc(NC5CCC(=O)NC5=O)cc4)CC3)CC2)(c2ccccc2)CC1` (centres unmarked) [Example 105, 1-(3-amino-6-(2-hydroxyphenyl)pyridazin-4-yl)-N-((1-(4-(4-(4-((2,6-dioxopiperidin-3-yl)amino)phenyl)piperidin-1-yl)butanoyl)piperidin-4-yl)methyl)-4-phenylpiperidine-4-carboxamide], the DC50 was determined as 100 nM and the Emax came to 33%.
As for `Nc1nnc(-c2ccccc2O)cc1N1CCC(CNC(=O)CCNc2cccc3c2C(=O)N(C2CCC(=O)NC2=O)C3=O)(c2ccccc2)CC1` (centres unmarked) [Example 75, N-((1-(3-amino-6-(2-hydroxyphenyl)pyridazin-4-yl)-4-phenylpiperidin-4-yl)methyl)-3-((2-(2,6-dioxopiperidin-3-yl)-1,3-dioxoisoindolin-4-yl)amino)], the DC50 was determined as 1430 nM and the Emax turned out to be 63%.
For `Nc1nnc(-c2ccccc2O)cc1N1CC2CCC(C1)N2c1cccc(OCCN2CCN(C(=O)CCCCCCNc3cccc4c3C(=O)N(C3CCC(=O)NC3=O)C4=O)CC2)c1` (centres unmarked) [Example 1, 4-[[7-[4-[2-[3-[3-[3-amino-6-(2-hydroxyphenyl)pyridazin-4-yl]-3,8-diazabicyclo[3.2.1]octan-8-yl]phenoxy]ethyl]piperazin-1-yl]-7-oxo-heptyl]amino]-2-(2,6-dioxo-3-piperidyl)isoindoline-1,3-dione], in that order: 68 nM and 55%.
The corresponding values for `Nc1nnc(-c2ccccc2O)cc1N1CC2CCC(C1)N2c1cccc(OCCN2CCN(C(=O)CCC3CCN(c4cccc5c4C(=O)N(C4CCC(=O)NC4=O)C5=O)CC3)CC2)c1` (racemic) [Example 16, rac-4-[4-[3-[4-[2-[3-[3-[3-amino-6-(2-hydroxyphenyl)pyridazin-4-yl]-3,8-diazabicyclo[3.2.1]octan-8-yl]phenoxy]ethyl]piperazin-1-yl]-3-oxo-propyl]-1-piperidyl]-2-(2,6-dioxo-3-piperidyl)isoindoline-1,3-dione] are 46 nM and 50%.
As to `Nc1nnc(-c2ccccc2O)cc1N1CC2CCC(C1)N2c1cccc(CC2CCN(C(=O)CCC3CCN(c4ccc5c(c4)C(=O)N(C4CCC(=O)NC4=O)C5=O)CC3)CC2)c1` (racemic) [Example 59, rac-5-[4-[3-[4-[[3-[3-[3-amino-6-(2-hydroxyphenyl)pyridazin-4-yl]-3,8-diazabicyclo[3.2.1]octan-8-yl]phenyl]methyl]-1-piperidyl]-3-oxo-propyl]-1-piperidyl]-2-(2,6-dioxo-3-piperidyl)isoindoline-1,3-dione], the DC50 is 129 nM and the Emax worked out at 65%.
On to `Nc1nnc(-c2ccccc2O)cc1N1CC2CCC(C1)N2c1cccc(CN2CCC(C(=O)N3CCN(c4ccc(OC5CCC(=O)NC5=O)cc4)CC3)CC2)c1` (racemic) [Example 94, rac-3-[4-[4-[1-[[3-[3-[3-amino-6-(2-hydroxyphenyl)pyridazin-4-yl]-3,8-diazabicyclo[3.2.1]octan-8-yl]phenyl]methyl]piperidine-4-carbonyl]piperazin-1-yl]phenoxy]piperidine-2,6-dione], for which the DC50 was found to be 18 nM and the Emax turned out to be 48%.
In the case of `Nc1nnc(-c2ccccc2O)cc1N1CC2CCC(C1)N2c1cccc(OCCN2CCN(C(=O)C3CCN(c4cccc5c4C(=O)N(C4CCC(=O)NC4=O)C5=O)CC3)CC2)c1` (racemic) [Example 13, rac-4-[4-[4-[2-[3-[3-[3-amino-6-(2-hydroxyphenyl)pyridazin-4-yl]-3,8-diazabicyclo[3.2.1]octan-8-yl]phenoxy]ethyl]piperazine-1-carbonyl]-1-piperidyl]-2-(2,6-dioxo-3-piperidyl)isoindoline-1,3-dione], the DC50 amounted to 32 nM and the Emax came out at 64%.

For orientation: Emax means the greatest response seen or fitted, relative to the assay's reference.
